Measured values taken from patent US4829082A, “Pharmaceutical compositions for the treatment of skin diseases” (Nisshin Chemicals Co., Ltd., priority 1986, dated 1989).
“And” between values parts separate entries of the source, which are not always exact repeats. Identical values can stand only once.

Legend:
rats = assay: Percutaneous subacute toxicity in rats; type: in vivo; details: lotions containing 0.5% and 1.5% of TOC ester
Protocol: Percutaneous subacute toxicity in rats
Tests were conducted for 30 days using lotions containing 0.5% and 1.5% of TOC ester, respectively.

bedsore = assay: Bedsore, human patient (Test Example 2); type: in vivo; details: oil ointment containing 0.5% by weight of TOC ester on gauze
Excerpt: An oil ointment containing 0.5% by weight of TOC ester spread on a gauze was applied to the bedsore areas occurred in the ischium and whirlbone of a person lying in bed for a long time suffering from injury of myelon, said gauze being embedded in a depressed region of deep ulcer of bedsore after crumpling the gauze into a ball, and being applied as it was to a superficial region of the ulcer. The gauze was exchanged once or twice a day.

human being = assay: Chafe on human being (Patch test); type: in vivo; details: cream containing 0.1% and 0.3% of TOC ester
Excerpt: Chafe on human being (Patch test)

Acute toxicity in mice = details: mouse, in vivo
eyes of rabbits = assay: Irritation on eyes of rabbits; type: in vivo; details: physiological salt suspensions containing 0.05% and 0.5% of TOC ester
Excerpt: Irritation on eyes of rabbits

[1] = General statement on toxicity, side effects and healing effect
callosity = assay: Callosity, human patient (Test Example 9); type: in vivo; details: lotion containing 0.5% by weight of TOC ester, about two weeks
eczema craquele = assay: Eczema craquele (cracking and chaps), human patient (Test Example 10); type: in vivo; details: hydrophilic ointment containing 0.3% by weight of TOC ester
Excerpt: [Eczema craquele (cracking and chaps)]

skin pruritus = assay: Skin pruritus, human patient (Test Example 7); type: in vivo; details: same ointment as Test Example 2 (0.5%)
skin keratosis = assay: Skin keratosis, human patient (Test Example 8); type: in vivo; details: same ointment as Test Example 2 (0.5%), three days after treatment
housewife eczema = assay: Housewife eczema, human patient (Test Example 11); type: in vivo; details: same hydrophilic ointment as Test Example 10 (0.3%), in a week
dermal ulcer = assay: Dermal ulcer occurred in a rheumatic patient (Test Example 3); type: in vivo, human; details: same ointment as Test Example 2 (0.5%)
Excerpt: (Dermal ulcer occurred in a rheumatic patient)
The same ointment as used in Test Example 2 was applied directly or applied using a gauze over which said ointment had been spread, to a dermal ulcer occurred on a sacral region, sciatic tuber region, elbow head, inner and outer ankle regions and heel region of a person suffering from arthrorheumatism under hospital treatment.

burn ulcer = assay: Burn ulcer, human patient (Test Example 4); type: in vivo; details: same ointment as Test Example 2 (0.5%), after one week
[2] = tested on: ulcer produced after zoster; assay: Zoster, human patient (Test Example 6); type: in vivo
Excerpt: To an ulcer produced after zoster had occurred on the neck through the shoulder of a person was applied a gauze over which the same ointment as used in Test Example 2 had been spread.

guinea pigs = assay: Appearance of skin allergy in guinea pigs (induction test); type: in vivo; details: challenge two weeks after sensitization, 0.1 ml acetone solution containing 0.05%, 0.10% and 0.20% of TOC ester
Protocol: Appearance of skin allergy in guinea pigs
Induction tests were conducted, wherein guinea pigs were sensitized with 0.1 ml of 30% chloroform solution, and two weeks after sensitization, the pigs were treated on the skin with 0.1 ml of acetone solution containing 0.05%, 0.10% and 0.20% of TOC ester, respectively.

frostbite = assay: Frostbite, human patient (Test Example 5); type: in vivo; details: same ointment as Test Example 2 (0.5%), about one week
experimental bedsore = assay: Experimental bedsore of rabbits; type: in vivo, Japanese white male rabbits
Excerpt: (Experimental bedsore of rabbits)
Japanese white male rabbits weighing 2.5-4.4 kg were used.
An experimental bedsore was formed on the rabbits in accordance with the methods of Kosiak (Arch. Phys. Med. Rehabil., Vbl. 40, 62-69, 1959) and Fukawa et al. (Applied Pharmacology, Vol. 23, No. 6, 999-1011, 1982). The rabbits were anethetized with Nembutal® and fixed so that the shaved right trochanteric region of the rabbits was held horizontally, a pressure of 500-600 mmHg/cm^2 was applied to 2 cm^2 area of the skin in the shaved region, and the rabbits were held for 5-10 hours to allow development of bedsore. Two days after application of the pressure, occurrence of bedsore was confirmed.
The affective rabbits were distributed to two groups. One group (5 rabbits) was coated on the surface of bedsore region with a lotion containing 0.5% by weight of TOC ester by a brush once a day (said lotion being prepared from 900 parts by weight of water, 95 parts by weight of ethanol and 5 parts by weight of TOC ester). The other control group (4 rabbits) was coated once a day with only the base of the lotion (mixture of 900 parts of weight of water and 95 parts by weight of ethanol). One week after the treatment, a sheet of Japanese paper was applied to the bedsore area occurred in each rabbit. The injured area of said bedsore was transferred to the paper according to the etching method, and the transferred areas were measured by means of a planimeter.

CC(C=CC1=C(C)CCCC1(C)C)=CC=CC(C)=CC(=O)Oc1c(C)c(C)c2c(c1C)CCC(C)(CCCC(C)CCCC(C)CCCC(C)C)O2 (stereo not drawn) [TOC ester, tocopheryl retinoate]
change in general symptoms, dermal symptoms and body weight (rats; 30 days): no change in general symptoms, dermal symptoms and body weight | change in blood and physiological examinations, anatomical observation, wet weight of organs, and pathological histological examination (rats; after 30 days): no change was observed at all | bottom region of deep ulcer, buildup of flesh owing to granulation (bedsore; about one month): marked buildup of flesh owing to granulation at the bottom region of deep ulcer | improvement in cuticularization along the circumference of ulcer (bedsore; about one month): a remarkable improvement in cuticularization | width of cuticularization along the circumference of ulcer (bedsore; about one month): about 5 mm | superficial region of ulcer, epidermization (bedsore; after one week): epidermization was observed on the superficial region of ulcer | superficial region of ulcer, disappearance of sore and closure (bedsore; two weeks thereafter): sore disappeared from the superficial region of ulcer, and the epidermis was formed to close the sore region | rubor or expansion (patch test) (human being): no rubor or expansion was observed at all | LD50 (Acute toxicity in mice; im): > 2500 mg/kg | LD50 (Acute toxicity in mice; ip): > 10000 mg/kg | LD50 (Acute toxicity in mice; po): > 10000 mg/kg | LD50 (Acute toxicity in mice; sc): > 2500 mg/kg | irritation on eyes (eyes of rabbits): no change was observed | side effects [1]: almost no side effects | toxicity [1]: extremely low in toxicity | improvement of callosity (callosity): an improvement such as softening of the callosity | adverse side-effects (eczema craquele; during the period of treatment): no adverse side-effects were observed | healing of eczema craquele (eczema craquele; one month): a marked improvement in healing of the disease | healing of eczema craquele (eczema craquele; two months): the disease perfectly healed | itching sensation (skin pruritus; one day after treatment): itching sensation ceased | healing of skin pruritus (skin pruritus; three days after the treatment): the skin pruritus healed perfectly | healing of skin keratosis (skin keratosis): a marked improvement in healing of the disease | healing of housewife eczema (housewife eczema): a marked improvement in healing of the disease | adverse side effects (dermal ulcer; during treatment period): No adverse side effects was observed | proliferation of the granulation and epidermization (dermal ulcer; large ulcers, about three months): marked improvements in proliferation of the granulation and in epidermization | proliferation of the granulation and epidermization (dermal ulcer; small ulcers, about two weeks): marked improvements in proliferation of the granulation and in epidermization | healing of burn ulcer (burn ulcer): a remarkable improvement in healing of the ulcer | healing of the ulcer after zoster ([2]; same ointment as Test Example 2 (0.5%) on gauze, about one week): a marked improvement in healing of the ulcer | recurrence ([2]; same ointment as Test Example 2 (0.5%), six months after the healing): no recurrence was observed | contact skin allergy (guinea pigs): No contact skin allergy was observed | healing of frostbite (frostbite): an improvement in healing of frostbite | Injured area difference, Average ± standard deviation (experimental bedsore; lotion containing 0.5% TOC ester group, 5 rabbits, one week, control 0.907 ± 0.292): 1.82 ± 0.213 cm2 | Injured area after one week (experimental bedsore; lotion containing 0.5% TOC ester once a day, individual rabbits): 1.30 cm2 and 0.98 cm2 and 0.70 cm2 and 0.09 cm2 and 0.23 cm2 | Injured area at the initiation of treatment (experimental bedsore; lotion containing 0.5% TOC ester, individual rabbits, before treatment): 2.68 cm2 and 3.01 cm2 and 1.95 cm2 and 2.20 cm2 and 2.56 cm2 | Injured area, Difference (experimental bedsore; lotion containing 0.5% TOC ester, individual rabbits, initiation minus after one week): 1.38 cm2 and 2.03 cm2 and 1.25 cm2 and 2.11 cm2 and 2.33 cm2 | reduction in the injured area of bedsore (experimental bedsore; lotion containing 0.5% by weight of TOC ester, once a day, one week, 5 rabbits): marked reduction in the injured area of bedsore
